The values below come from US10502749B1, “Method for patient stratification and drug efficacy monitoring” (New York University, priority 2016, dated 2019).

Each structure is given as a SMILES string.

For assay [1], the system named is FXS model mice. The conditions noted are these: cited from earlier work.
The test system of assay [2] is FXS model mice. The following applies: cited from earlier work. This is another data set of the same source.
For assay [3], the system named is Ras, dynamin, Grin2B, and mGlur5. Nature of the assay: Western blot of candidate proteins in brains of FXS and WT littermates after chronic S6K1 inhibitor treatment. The assay is classed as in vivo, mouse. The conditions noted are these: for Expression of candidate proteins (Ras, dynamin, Grin2B, mGlur5) in brain after treatment: FXS model mice, chronic treatment, 25 mg/kg i.p. daily for 10 days, western blot, 25 mg/kg. How it is done:
(§1) PF-4708671 was obtained from Sigma, Mo., USA. Littermate matched mice underwent 10 days of daily 25 mg/kg intraperitoneal injections of PF-4708671 in a vehicle consisting of saline +5% v/v of Tween-80 (Sigma). On day 10, 90 mins after the final injection mice were killed by cervical dislocation and the hippocampus was quickly dissected to yield whole hippocampal lysates. Simultaneously, trunk blood also was collected to monitor peripheral levels of proteins.
Thus, the candidates correlate with improved behavior in the brain. We therefore evaluated if they could be measured and quantified in a peripheral tissue such as blood. Animals were treated as described above with PF-4708671, then animals were euthanized via cervical dislocation and brain tissue was collected on ice and snap frozen. Lysates were then prepared as previously described (Bhattacharya et al, 2016, incorporated herein by reference) and analyzed by western blot.
Brain tissues were obtained immediately following euthanasia, snap frozen and homogenized in lysis buffer containing protease and phosphatase inhibitors. Lysates were then analyzed using Western blotting and the levels of specific candidates was determined using densitometry and comparing them to a known loading control such as actin, Gapdh or transferrin receptor.
(Immunoblotting shows a protein as a band on a membrane.)

Assay [4] relates to FXS model mice. The conditions noted are these: cited from earlier work. The source holds these as a separate data set.
The test system of assay [5] is FXS model mice. The following applies: cited from earlier work. The source holds these as a separate data set.
For assay [6], the system named is Ras. Nature of the assay: Concentration levels of mGluR and Ras in mouse trunk blood after 10 days of treatment. The assay is classed as in vivo. The protocol: as §1
FXS or wild type mice were treated with an S6K1 inhibitor, PF-4708671 (S6Ki) for 10 days. Concentration levels of the two markers—mGluR and Ras in mouse trunk blood treated with vehicle or the S6Ki were determined. N=3 animals per treatment per genotype were used. Statistical analyses was done using two-way ANOVA (genotype×treatment). P=0.0079 for interaction and p=0.019 for FXS±S6Ki and p=0.16 for WT±S6Ki.

As to `CCc1cncnc1N1CCN(Cc2nc3ccc(C(F)(F)F)cc3[nH]2)CC1` [PF-4708671], the “Aberrant social novelty behavior, rescued by S6K1i” value in assay [1] is “Both inhibitors rescued”. Also, the “Aberrant y-maze reversal learning, rescued by S6K1i” value in assay [2] is listed as “Both inhibitors rescued”. Besides, the “Ras in the brain of FXS mice after S6K1 inhibitor” value in assay [3] (FXS mice, brain, FIG. 3) is on record as “does not change”. In addition, the “Expression of candidate proteins (Ras, dynamin, Grin2B, mGlur5) in brain after treatment” value is “rescues expression of 3 protein candidates in brain” in assay [3] and 3 out of 4 are statistically improved in assay [3] (listed as S6K1 inhibitor). The “Increased protein synthesis, rescued by S6K1i” value in assay [4] was “Both inhibitors rescued”. Also, the “Aberrant spine morphology, rescued by S6K1i” value in assay [5] was “Both inhibitors rescued”. In assay [6] (FXS mice, vehicle 10 days (printed as FXS+veh)), the “Ras level in trunk blood, greater than WT veh” value is reported as 31%. For the same compound, the “Ras level in trunk blood, average (+/-SD)” value was 1.19±0.21 in assay [6] (FXS mice, vehicle 10 days, N=3 (printed as FXS+veh)) and 0.62±0.20 in assay [6] (WT mice, S6Ki 10 days, N=3). The “Candidate proteins (mGluR, Ras) in FXS model mouse blood rescued by treatment” value in assay [6] (FXS model mice, trunk blood, 10 days, listed as S6K1 inhibitor) is recorded as “one was rescued”. Moreover, in assay [6] (WT mice, S6Ki 10 days), the “Ras level in trunk blood, less from WT veh” value is 32%.
